Read-outs that look alike come from different tables or passages of the source.
How the values were obtained:
mu opiate receptor (MOR) = assay: MOR agonist activity using [35S]GTPγS binding assay in striatal membranes; format: biochemical; conditions: for % DAMGO (0.1 μM) / % DAMGO (1 μM): relative to DAMGO; for % DAMGO + BFNA: 1 μM compound + β-FNA, relative to DAMGO + BFNA
Experimental: To assess the mu opiate receptor (MOR) agonist activity of positive compounds from the FLNA screening, compounds were tested in a [^35S]GTPγS binding assay using striatal membranes. […] This assay measures a functional consequence of receptor occupancy at one of the earliest receptor-mediated events. The assay permits traditional pharmacological parameters of potency, efficacy and antagonist affinity, with the advantage that agonist measures are not subjected to amplification or other modulation that may occur when analyzing parameters further downstream of the receptor.
Thus, striatal tissue was homogenized in 10 volumes of ice cold 25 mM HEPES buffer, pH 7.4, which contained 1 mM EGTA, 100 mM sucrose, 50 μg/ml leupeptin, 0.04 mM PMSF, 2 μg/ml soybean trypsin inhibitor and 0.2% 2-mercaptoethanol. The homogenates were centrifuged at 800×g for 5 minutes and the supernatants were centrifuged at 49,000×g for 20 minutes. The resulting pellets were suspended in 10 volume of reaction buffer, which contained 25 mM HEPES, pH 7.5, 100 mM NaCl, 50 μg/ml leupeptin, 2 μg/ml soybean trypsin inhibitor, 0.04 mM PMSF and 0.02% […].
The resultant striatal membrane preparation (200 μg) was admixed and maintained (incubated) at 30° C. for 5 minutes in reaction buffer as above that additionally contained 1 mM MgCl2 and 0.5 nM [^35S]GTPγS (0.1 μCi/assay, PerkinElmer Life and Analytical Sciences) in a total volume of 250 μl and continued for 5 minutes in the absence or presence of 0.1-10 μM of an assayed compound of interest. The reaction was terminated by dilution with 750 μl of ice-cold reaction buffer that contained 20 mM MgCl2 and 1 mM EGTA and immediate centrifugation at 16,000×g for 5 minutes.
The resulting pellet was solubilized by sonicating for 10 seconds in 0.5 ml of immunoprecipitation buffer containing 0.5% digitonin, 0.2% sodium cholate and 0.5% NP-40. Normal rabbit serum (1 μl) was added to 1 ml of lysate and incubated at 25° C. for 30 minutes. Nonspecific immune complexes were removed by incubation with 25 μl of protein A/G-conjugated agarose beads at 25° C. for 30 minutes followed by centrifugation at 5,000×g at 4° C. for 5 minutes. The supernatant was divided and separately incubated at 25° C. for 30 minutes with antibodies raised against Gαo proteins (1:1,000 dilutions).
The immunocomplexes so formed were collected by incubation at 25° C. for 30 minutes with 40 μl of agarose-conjugated protein A/G beads and centrifugation at 5,000×g at 4° C. for 5 minutes. The pellet was washed and suspended in buffer containing 50 mM Tris-HCl, pH 8.0, and 1% NP-40. The radioactivity in the suspension was determined by liquid scintillation spectrometry.

[1] = target: FLNA pentapeptide of SEQ ID NO: 1 (Bn-VAKGL) (Homo sapiens, UniProt P21333); assay: FITC-NLX-based FLNA screening assay (inhibition of FITC-naloxone binding to Bn-VAKGL on streptavidin plates); conditions: for inhibition at 0.01 µM / inhibition at 0.1 µM / inhibition at 1 µM: 10 nM FITC-NLX
[2] = Series C-2, 0.1 μM compound, [35S]GTPγS binding to Gαo, striatal membranes
[3] = Series C-2, 1 μM compound + 1 μM β-FNA
[4] = Series C-2, 1 μM compound, [35S]GTPγS binding to Gαo, striatal membranes
[5] = Series C-1, 0.1 μM compound, [35S]GTPγS binding to Gαo, striatal membranes
[6] = Series C-1, 1 μM compound + 1 μM β-FNA
[7] = Series C-1, 1 μM compound, [35S]GTPγS binding to Gαo, striatal membranes

COc1ccc(CCCCC2c3c(cc4c(c3OC)OCO4)CC[N+]2(C)C)cc1 (stereo not shown) [Compound B0056]
% DAMGO (0.1 μM) (mu opiate receptor (MOR); Series B, 0.1 μM compound): 98.9%
MOR agonist activity, percent [35S]GTPγS binding at the stated compound concentration (mu opiate receptor (MOR); Series B, 0.1 μM compound, [35S]GTPγS binding to Gαo, striatal membranes): 174.7%
MOR agonist activity, percent [35S]GTPγS binding at the stated compound concentration (mu opiate receptor (MOR); Series B, 1 μM compound + 1 μM β-FNA): 41.8%
% DAMGO + BFNA (mu opiate receptor (MOR); Series B): 158.9%
% DAMGO (1 μM) (mu opiate receptor (MOR); Series B, 1 μM compound): 113.6%
MOR agonist activity, percent [35S]GTPγS binding at the stated compound concentration (mu opiate receptor (MOR); Series B, 1 μM compound, [35S]GTPγS binding to Gαo, striatal membranes): 288.8%

COc1ccc(NC(=O)N2CCC3(CC2)NCCO3)cc1 [Compound C0151M-2]
% DAMGO (0.1 μM) (mu opiate receptor (MOR); Series C-2, 0.1 μM compound): 201.6%
MOR agonist activity, percent [35S]GTPγS binding at the stated compound concentration (mu opiate receptor (MOR); [2]): 346.8%
MOR agonist activity, percent [35S]GTPγS binding at the stated compound concentration (mu opiate receptor (MOR); [3]): 212.8%
% DAMGO + BFNA (mu opiate receptor (MOR); Series C-2): 233.1%
% DAMGO (1 μM) (mu opiate receptor (MOR); Series C-2, 1 μM compound): 122.0%
MOR agonist activity, percent [35S]GTPγS binding at the stated compound concentration (mu opiate receptor (MOR); [4]): 397.6%

CC(=O)c1ccc(S(=O)(=O)N2CCC3(CC2)NCC(=O)N3Cc2ccccc2)cc1 [Compound C0082M]
% DAMGO (0.1 μM) (mu opiate receptor (MOR); Series C-1, 0.1 μM compound): 113.7%
Concentration of FLNA-Binding Compound as Agonist 0.1 μM (mu opiate receptor (MOR); [5]): 228.1%
Concentration of FLNA-Binding Compound as Agonist 1 μM + BFNA (mu opiate receptor (MOR); [6]): 97.6%
% DAMGO + BFNA (mu opiate receptor (MOR); Series C-1): 181.1%
% DAMGO (1 μM) (mu opiate receptor (MOR); Series C-1, 1 μM compound): 107.8%
Concentration of FLNA-Binding Compound as Agonist 1 μM (mu opiate receptor (MOR); [7]): 338.4%

C=CCN1CC[C@]23c4c5ccc(O)c4O[C@H]2C(=O)CC[C@@]3(O)[C@H]1C5 [NLX, naloxone, reference compound]
Inhibition of 10 nM FITC-conjugated NLX binding to biotinylated FLNA pentapeptide (FIG. 28) ([1]; 1 μM): inhibit well

C=CCN1CC[C@]23c4c5ccc(O)c4O[C@H]2C(=O)CC[C@@]3(O)[C@H]1C5 [Naloxone Control, naloxone, reference compound]
inhibition at 0.01 µM ([1]; read-out: Percent Binding Inhibition, FLNA-binding compound 0.01 μM): 39.9%
inhibition at 0.1 µM ([1]; read-out: Percent Binding Inhibition, FLNA-binding compound 0.1 μM): 46.3%
inhibition at 1 µM ([1]; read-out: Percent Binding Inhibition, FLNA-binding compound 1 μM): 50.9%

COc1ccc(CN2CCC3(CC2)OCCN3S(=O)(=O)c2ccc(OC)cc2)cc1 [Compound C0038]
inhibition at 0.01 µM ([1]; FLNA-binding compound 0.01 μM, read-out: Percent Binding Inhibition): 31.7%
inhibition at 0.1 µM ([1]; FLNA-binding compound 0.1 μM, read-out: Percent Binding Inhibition): 36%
inhibition at 1 µM ([1]; FLNA-binding compound 1 μM, read-out: Percent Binding Inhibition): 43.5%

O=C1CN(Cc2ccccc2)C2(CCN(S(=O)(=O)c3cc(Cl)cc(Cl)c3O)CC2)N1 [Compound C0138M]
% DAMGO (0.1 μM) (mu opiate receptor (MOR); Series C-1, 0.1 μM compound): 86.3%
Concentration of FLNA-Binding Compound as Agonist 0.1 μM (mu opiate receptor (MOR); [5]): 126.9%
Concentration of FLNA-Binding Compound as Agonist 1 μM + BFNA (mu opiate receptor (MOR); [6]): 51.5%
% DAMGO + BFNA (mu opiate receptor (MOR); Series C-1): 131.0%
% DAMGO (1 μM) (mu opiate receptor (MOR); Series C-1, 1 μM compound): 90.9%
Concentration of FLNA-Binding Compound as Agonist 1 μM (mu opiate receptor (MOR); [7]): 183.9%

O=S(=O)(c1ccccc1Oc1ccccc1)N1CCC2(CC1)NCCO2 [Compound C0149M-2]
% DAMGO (0.1 μM) (mu opiate receptor (MOR); Series C-2, 0.1 μM compound): 122.0%
MOR agonist activity, percent [35S]GTPγS binding at the stated compound concentration (mu opiate receptor (MOR); [2]): 209.8%
MOR agonist activity, percent [35S]GTPγS binding at the stated compound concentration (mu opiate receptor (MOR); [3]): 93.4%
% DAMGO + BFNA (mu opiate receptor (MOR); Series C-2): 102.3%
% DAMGO (1 μM) (mu opiate receptor (MOR); Series C-2, 1 μM compound): 124.8%
MOR agonist activity, percent [35S]GTPγS binding at the stated compound concentration (mu opiate receptor (MOR); [4]): 406.7%

COc1ccc(S(=O)(=O)N2CCOC23CCCNC3)cc1 (stereo not shown) [Compound C0145M-3]
% DAMGO (0.1 μM) (mu opiate receptor (MOR); Series C-2, 0.1 μM compound): 112.2%
MOR agonist activity, percent [35S]GTPγS binding at the stated compound concentration (mu opiate receptor (MOR); [2]): 193.0%
MOR agonist activity, percent [35S]GTPγS binding at the stated compound concentration (mu opiate receptor (MOR); [3]): 87.0%
% DAMGO + BFNA (mu opiate receptor (MOR); Series C-2): 95.3%
% DAMGO (1 μM) (mu opiate receptor (MOR); Series C-2, 1 μM compound): 88.7%
MOR agonist activity, percent [35S]GTPγS binding at the stated compound concentration (mu opiate receptor (MOR); [4]): 289.2%

C[C@@H](NC(=O)[C@@H](N)Cc1ccc(O)cc1)C(=O)NCC(=O)N(C)[C@@H](Cc1ccccc1)C(=O)NCCO [DAMGO, [D-Ala2, N-MePhe4, Gly-ol]-enkephalin, reference compound]
MOR agonist activity, FLNA-Binding Compound as Agonist 0.1 μM (preliminary study) (mu opiate receptor (MOR); 0.1 μM, average of two runs): 144.7%
MOR agonist activity, FLNA-Binding Compound as Agonist 1 μM + βNFA (preliminary study) (mu opiate receptor (MOR); 1 μM + βNFA, average of two runs): 56.8%
MOR agonist activity, FLNA-Binding Compound as Agonist 1 μM (preliminary study) (mu opiate receptor (MOR); 1 μM, average of two runs): 233.4%
% DAMGO (0.1 μM) (mu opiate receptor (MOR); Series C-1, 0.1 μM compound): 100%
Concentration of FLNA-Binding Compound as Agonist 0.1 μM (mu opiate receptor (MOR); [5]): 168.5%
Concentration of FLNA-Binding Compound as Agonist 1 μM + BFNA (mu opiate receptor (MOR); [6]): 53.2%
% DAMGO + BFNA (mu opiate receptor (MOR); Series C-1): 100%
% DAMGO (1 μM) (mu opiate receptor (MOR); Series C-1, 1 μM compound): 100%
Concentration of FLNA-Binding Compound as Agonist 1 μM (mu opiate receptor (MOR); [7]): 266.1%
% DAMGO (0.1 μM) (mu opiate receptor (MOR); Series C-2, 0.1 μM compound): 100%
Concentration of FLNA-Binding Compound as Agonist 0.1 μM (mu opiate receptor (MOR); [2]): 168.5%
Concentration of FLNA-Binding Compound as Agonist 1 μM + BFNA (mu opiate receptor (MOR); [3]): 53.2%
% DAMGO + BFNA (mu opiate receptor (MOR); Series C-2): 100%
% DAMGO (1 μM) (mu opiate receptor (MOR); Series C-2, 1 μM compound): 100%
Concentration of FLNA-Binding Compound as Agonist 1 μM (mu opiate receptor (MOR); [4]): 266.1%

— patent publication US10363239B2, “Method for inhibiting growth of cancer cells” (Pain Therapeutics, Inc., priority 2013, dated 2019)
